From US6949516B2, “Dipeptide apoptosis inhibitors and the use thereof” (Cytovia, Inc., priority 1997, dated 2005)
Where a SMILES comes first, the peptide text is derived from it. The star is where a group is joined. Cbz = O=C(OCc1ccccc1)*; CH2F = FC*

Experiments:
[1] = test system: PARP cleavage in Jurkat cells; experiment: Effect of Z-VD-fmk on PARP cleavage in antiFas-treated Jurkat cells (Example 24); type: cell-based, human
Procedure: Poly(ADP)ribose polymerase (PARP) was one of the first caspase-3 substrates identified and the cleavage of PARP is still considered to be a near-universal marker for caspase-3 activation and caspase-mediated apoptosis. The ability of an anti-apoptotic compound to block PARP cleavage is therefore a useful indicator of its ability to inhibit apoptosis. The potency of Z-VD-fmk in a PARP cleavage assay was tested using antiFas-treated Jurkat cells. 2×10^6 Jurkat cells were seeded in each well of a 6-well dish and pre-incubated with test compounds for 30 minutes. The cells were then challenged with 500 ng/mL of an agonistic antiFas antibody or PBS for 4 hours. The cells were then harvested, pelleted gently, washed two times with PBS and lysed in RIPA buffer. Aliquots of the lysate were analyzed by SDS-PAGE and the proteins were transferred to PVDF membranes for Western blotting. The primary antibody was a polyclonal antiPARP serum which cross-reacts with both full-length PARP and the caspase-3-generated cleavage product.

HeLa cells = experiment: Effect of Z-VD-fmk on TNF-α-induced cell death in HeLa cells (calcein AM, Example 25); type: cell-based; conditions: below 1 μM (data not shown)
Procedure: Tumor necrosis factor alpha (TNF-α) can trigger apoptosis in a number of cell types by initiating the caspase cascade and its apoptosis inducing activity can be inhibited by peptide-based caspase inhibitors. However, high concentrations of the inhibitors (50 μM or greater) is required to have good anti-apoptotic effect. HeLa cells, a cell line commonly employed in TNF-α cell death studies, was used here to determine the anti-apoptotic potency of Z-VD-fmk.
HeLa cells were seeded in 48-well multidishes at a density of 50,000 cells per well 24 hours before treatment. They were then pre-incubated with varying concentrations of Z-VD-fmk for 2 hours and challenged with TNF-α (25 ng/mL) and cycloheximide (CHX; 30 μg/mL). The cultures were incubated for an additional 24 hours and dead cells were removed by two washes with PBS. The density of surviving cells was then measured by incubating each culture for 45 minutes with calcein AM, a profluorescent dye which is taken up by living cells and converted to a fluorescent product. The resulting data were expressed as % control values (control values were cells incubated with cycloheximide but without TNF-α).
Z-VD-fmk provided good cytoprotection at concentrations approaching 100 nM.

For `COC(=O)C[C@H](NC(=O)[C@H](C)NC(=O)[C@@H](NC(=O)OCc1ccccc1)C(C)C)C(=O)CF` [Z-VAD-fmk, reference compound] (Cbz-Val-Ala-Asp(OMe)-CH2F), the “inhibition of PARP cleavage” value ([1]; 500 nM, antiFas-treated Jurkat cells) was “much less effective”, the “inhibition of PARP cleavage” value ([1]; 5 μM, antiFas-treated Jurkat cells (data not shown)) was “effective inhibitor” and the “cytoprotection against TNF-α-induced cell death” value (HeLa cells) was “loses much of its cytoprotective properties”.
